Assay results from US12252524B2, “GIP/GLP1 co-agonist compounds” (Eli Lilly and Company, priority 2018, dated 2025).
Numbered stars: 1 amine (or outer) side, 2 acyl side, 3 side chain; on linkers, the order of the positions; unused ones are H or OH. Square brackets hold non-standard residues; d marks the D form. Side chains are listed from the residue outwards. Peptide text beside a SMILES is read from it. * marks the point of attachment. C20 diacid = O=C(O)CCCCCCCCCCCCCCCCCCC(=O)*; C18 diacid = O=C(O)CCCCCCCCCCCCCCCCC(=O)*; αMePhe(2-F) = C[C@](N)(Cc1ccccc1F)C(=O)O; γGlu = O=C(O)[C@H](CCC(=O)[*:2])N[*:1]; αMeY = C[C@](N)(Cc1ccc(O)cc1)C(=O)O; αMeL = CC(C)C[C@](C)(N)C(=O)O; Orn = NCCC[C@H](N)C(=O)O; AEEA = NCCOCCOCC(=O)O; Aib = CC(C)(N)C(=O)O

Assays:
[1] = biological target: T1, gastric inhibitory peptide receptor (GIPR) (Homo sapiens, UniProt P48546); test: cAMP pharmacological functional assay in presence of casein, hGIPR; format: cell-based; conditions: HEK293 cells expressing hGIPR, 0.1% Casein, geometric mean; read-out: hGIPR cAMP Rel EC50 nM (SEM, n)
T1 sequence (P48546 22-466): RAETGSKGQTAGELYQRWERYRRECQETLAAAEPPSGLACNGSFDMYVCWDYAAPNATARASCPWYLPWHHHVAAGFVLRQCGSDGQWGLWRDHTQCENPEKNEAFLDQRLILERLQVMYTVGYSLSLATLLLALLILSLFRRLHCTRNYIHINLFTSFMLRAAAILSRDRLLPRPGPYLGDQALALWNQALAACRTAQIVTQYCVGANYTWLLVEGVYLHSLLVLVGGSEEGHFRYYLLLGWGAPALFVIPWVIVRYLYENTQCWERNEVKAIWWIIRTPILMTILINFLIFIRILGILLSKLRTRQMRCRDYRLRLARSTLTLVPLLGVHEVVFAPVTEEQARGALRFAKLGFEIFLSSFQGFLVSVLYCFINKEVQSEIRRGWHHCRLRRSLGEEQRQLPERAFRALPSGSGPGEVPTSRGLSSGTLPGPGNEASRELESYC

human GIP receptor = biological target: T2, human GIP receptor (Homo sapiens, UniProt P48546); test: [125I]-GIP binding (SPA), human GIP receptor; conditions: read-out: hGIPR Ki, nM (SEM, n)
T2 construct: expressed in transfected cells; crude membranes
T2 sequence (P48546 22-466): T1 sequence (P48546 22-466)

[2] = biological target: human GLP-1 receptor (GLP-1R) (Homo sapiens, UniProt P43220); test: cAMP pharmacological functional assay in presence of casein, hGLP-1R; format: cell-based; conditions: HEK293 cells expressing hGLP-1R, 0.1% Casein, geometric mean; read-out: hGLP1R cAMP Rel EC50 nM (SEM, n)
human GLP-1 receptor (GLP-1R), sequence (P43220 24-463): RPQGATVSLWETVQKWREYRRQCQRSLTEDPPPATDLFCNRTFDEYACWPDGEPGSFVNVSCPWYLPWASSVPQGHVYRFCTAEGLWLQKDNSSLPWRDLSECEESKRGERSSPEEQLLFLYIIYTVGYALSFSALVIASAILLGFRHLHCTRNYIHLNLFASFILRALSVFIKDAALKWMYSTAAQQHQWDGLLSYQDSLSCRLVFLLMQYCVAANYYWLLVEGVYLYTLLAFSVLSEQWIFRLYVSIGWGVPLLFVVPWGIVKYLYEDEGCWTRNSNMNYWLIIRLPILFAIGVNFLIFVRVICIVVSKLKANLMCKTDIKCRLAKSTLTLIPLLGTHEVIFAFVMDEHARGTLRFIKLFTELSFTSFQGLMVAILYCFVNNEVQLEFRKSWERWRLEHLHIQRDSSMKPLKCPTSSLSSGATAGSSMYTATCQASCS

human GLP-1R [3] = biological target: T3, human GLP-1R (Homo sapiens, UniProt P43220); test: [125I]-GLP-1 binding (SPA), human GLP-1 receptor; design: expressed in transfected cells; crude membranes; conditions: read-out: hGLP1R Ki, (nM) (SEM, n)
T3 sequence (P43220 24-463): as above
Procedure, shortened: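 Crude-membrane binding assay; one membrane prep included 1 mM MgCl2 and 25 units/ml DNAse I during lysis. Assay buffer at pH 7.4 contains 0.1% (w/v) bacitracin and 0.003% (w/v) TWEEN-20. Ki is reported as geometric mean.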

human GLP-1R [4] = biological target: T3, human GLP-1R; test: GLP-1R CHO cell β-arrestin recruitment assay; format: cell-based; design: host or cells: CHO-K1 PathHunter cells, assay-ready frozen; conditions: for EC50: CHO-K1 cells; for hGLP1R B-Arrestin2 % Top: normalized to GLP-1 maximum control
Procedure, shortened: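 PathHunter CHO-K1 cells with ProLink-tagged human GLP-1R and enzyme-acceptor-tagged β-arrestin-2 treated with serially diluted peptides in assay buffer containing 0.1% hydrolyzed casein, 90 min at 37 °C.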

human GLP-1R [5] = biological target: T3, human GLP-1R; test: GLP-1R HEK293 cell membrane [35S]GTPγS binding assay; format: biochemical; design: expressed in transfected cells; host or cells: HEK293 cells expressing human GLP-1R; membranes; conditions: HEK293 cell membranes expressing human GLP-1R, [35S]GTPγS binding; read-out: hGLP1R GTPgS Rel EC50 nM (SEM, n)
Procedure, shortened: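 Membranes from HEK293 cells expressing the receptor incubated with peptide and […] [35S]GTPγS in HEPES pH 7.4 buffer with NaCl, MgCl2, saponin and BSA, 30 min at room temperature. Gαs-bound label captured by anti-Gαs antibody/SPA beads and counted; EC50 from four-parameter logistic fit.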

human Gcg receptor = biological target: T4, human Gcg receptor (Homo sapiens, UniProt P47871); test: [125I]-Glucagon binding (SPA), human Gcg receptor; conditions: read-out: hGLcgR Ki, nM (SEM, n)
T4 construct: expressed in transfected cells; crude membranes
T4 sequence (P47871 26-477): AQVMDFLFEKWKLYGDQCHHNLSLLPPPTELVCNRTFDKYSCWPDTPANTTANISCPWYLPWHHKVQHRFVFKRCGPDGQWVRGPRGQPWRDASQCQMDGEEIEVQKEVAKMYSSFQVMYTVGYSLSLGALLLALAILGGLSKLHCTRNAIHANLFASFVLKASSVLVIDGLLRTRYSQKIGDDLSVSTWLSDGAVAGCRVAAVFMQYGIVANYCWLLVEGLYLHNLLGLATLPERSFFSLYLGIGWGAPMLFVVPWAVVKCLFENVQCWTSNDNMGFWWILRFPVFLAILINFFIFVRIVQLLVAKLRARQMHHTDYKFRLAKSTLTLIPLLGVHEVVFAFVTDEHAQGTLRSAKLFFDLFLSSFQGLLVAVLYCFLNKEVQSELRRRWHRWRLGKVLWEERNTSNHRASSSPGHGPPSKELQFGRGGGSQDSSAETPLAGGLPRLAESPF
Procedure, shortened: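 Crude membranes from cells expressing the receptor, prepared by hypotonic lysis in 50 mM Tris HCl pH 7.5 with protease inhibitors, homogenization and differential centrifugation, were used in a WGA-bead SPA. Binding buffer: 25 mM HEPES pH 7.4, 2.5 mM CaCl2, 1 mM MgCl2, bacitracin, Tween-20.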

[6] = PathHunter β-arrestin-2 recruitment, 0.1% casein, read-out: hGLP1R B-Arrestin2 Rel EC50 uM (SEM, n)

| SMILES | EC50 [1] [nM] | Ki (human GIP receptor) [nM] | EC50 [2] [nM] | Ki (human GLP-1R [3]) [nM] | EC50 (human GLP-1R [4]; 0.1% w/v hydrolyzed Casein, read-out: hGLP1R B-Arrestin2 Rel EC50) [µM] | EC50 (human GLP-1R [4]; [6]) [µM] | EC50 (human GLP-1R [5]) [nM] | Ki (human Gcg receptor) [nM] | hGLP1R B-Arrestin2 % Top (human GLP-1R [4]) [%] |
| --- | --- | --- | --- | --- | --- | --- | --- | --- | --- |
| CC[C@H](C)[C@H](NC(=O)[C@H](CC(C)C)NC(=O)[C@H](Cc1ccc(O)cc1)NC(=O)[C@@H](CCC(=O)O)NC(=O)[C@@H](NC(=O)[C@H](Cc1ccccc1)NC(=O)[C@H](C)NC(=O)C(C)(C)NC(=O)[C@H](CCC(N)=O)NC(=O)[C@H](C)NC(=O)[C@H](CCCCNC(=O)COCCOCCNC(=O)COCCOCCNC(=O)CC[C@H](NC(=O)CCCCCCCCCCCCCCCCCCC(=O)O)C(=O)O)NC(=O)[C@H](CCCN)NC(=O)[C@H](CC(=O)O)NC(=O)[C@H](CC(C)C)NC(=O)[C@](C)(CC(C)C)NC(=O)[C@@H](NC(=O)[C@H](CO)NC(=O)[C@H](Cc1ccc(O)cc1)NC(=O)[C@H](CC(=O)O)NC(=O)[C@H](CO)NC(=O)[C@@H](NC(=O)[C@H](Cc1ccccc1)NC(=O)[C@@H](NC(=O)CNC(=O)[C@H](CCC(=O)O)NC(=O)C(C)(C)NC(=O)[C@H](N)Cc1ccc(O)cc1)[C@@H](C)O)[C@@H](C)O)[C@@H](C)CC)[C@@H](C)CC)C(=O)N[C@@H](C)C(=O)NCC(=O)NCC(=O)N1CCC[C@H]1C(=O)N[C@@H](CO)C(=O)N[C@@H](CO)C(=O)NCC(=O)N[C@@H](C)C(=O)N1CCC[C@H]1C(=O)N1CCC[C@H]1C(=O)N1CCC[C@H]1C(=O)N[C@@H](CO)C(N)=O [Example 291] (H-[dY][Aib]EGTFTSDYSI[αMeL]LD[Orn]K([AEEA-AEEA-γGlu-C20 diacid])AQ[Aib]AFI[dE]YLIAGGPSSGAPPPS-NH2) | 0.118 | 0.129 | 0.15 | 3.16 | > 10 | > 10 | 0.466 | > 872 | – |
| CC[C@H](C)[C@H](NC(=O)[C@H](CC(C)C)NC(=O)[C@](C)(Cc1ccc(O)cc1)NC(=O)[C@H](CCC(=O)O)NC(=O)[C@@H](NC(=O)[C@H](Cc1ccccc1)NC(=O)[C@H](CCC(=O)O)NC(=O)C(C)(C)NC(=O)[C@H](CCC(N)=O)NC(=O)[C@H](C)NC(=O)[C@H](CCCCNC(=O)COCCOCCNC(=O)COCCOCCNC(=O)CC[C@H](NC(=O)CCCCCCCCCCCCCCCCCCC(=O)O)C(=O)O)NC(=O)[C@H](CCCCN)NC(=O)[C@H](CC(=O)O)NC(=O)[C@H](CC(C)C)NC(=O)[C@](C)(CC(C)C)NC(=O)[C@@H](NC(=O)[C@H](CO)NC(=O)[C@H](Cc1ccc(O)cc1)NC(=O)[C@H](CC(=O)O)NC(=O)[C@H](CO)NC(=O)[C@@H](NC(=O)[C@H](Cc1ccccc1)NC(=O)[C@@H](NC(=O)CNC(=O)[C@H](CCC(=O)O)NC(=O)C(C)(C)NC(=O)[C@H](N)Cc1ccc(O)cc1)[C@@H](C)O)[C@@H](C)O)[C@@H](C)CC)[C@@H](C)CC)C(=O)N[C@@H](C)C(=O)NCC(=O)NCC(=O)N1CCC[C@H]1C(=O)N[C@@H](CO)C(=O)N[C@@H](CO)C(=O)NCC(=O)N[C@@H](C)C(=O)N1CCC[C@H]1C(=O)N1CCC[C@H]1C(=O)N1CCC[C@H]1C(=O)N[C@@H](CO)C(N)=O [Example 292] (H-[dY][Aib]EGTFTSDYSI[αMeL]LDKK([AEEA-AEEA-γGlu-C20 diacid])AQ[Aib]EFIE[αMeY]LIAGGPSSGAPPPS-NH2; N-terminus assumed) | 0.0682 | 0.0547 | 0.183 | 1.19 | – | 0.00774 | 0.429 | 595 | 29.0 |
| CC[C@H](C)[C@H](NC(=O)[C@H](CC(C)C)NC(=O)[C@](C)(Cc1ccc(O)cc1)NC(=O)[C@H](CCC(=O)O)NC(=O)[C@@H](NC(=O)[C@H](Cc1ccccc1)NC(=O)[C@H](CCC(=O)O)NC(=O)C(C)(C)NC(=O)[C@H](CCC(N)=O)NC(=O)[C@H](C)NC(=O)[C@H](CCCCNC(=O)COCCOCCNC(=O)COCCOCCNC(=O)CC[C@H](NC(=O)CCCCCCCCCCCCCCCCCCC(=O)O)C(=O)O)NC(=O)[C@H](CCCN)NC(=O)[C@H](CC(=O)O)NC(=O)[C@H](CC(C)C)NC(=O)[C@](C)(CC(C)C)NC(=O)[C@@H](NC(=O)[C@H](CO)NC(=O)[C@H](Cc1ccc(O)cc1)NC(=O)[C@H](CC(=O)O)NC(=O)[C@H](CO)NC(=O)[C@@H](NC(=O)[C@H](Cc1ccccc1)NC(=O)[C@@H](NC(=O)CNC(=O)[C@H](CCC(=O)O)NC(=O)C(C)(C)NC(=O)[C@H](N)Cc1ccc(O)cc1)[C@@H](C)O)[C@@H](C)O)[C@@H](C)CC)[C@@H](C)CC)C(=O)N[C@@H](C)C(=O)NCC(=O)NCC(=O)N1CCC[C@H]1C(=O)N[C@@H](CO)C(=O)N[C@@H](CO)C(=O)NCC(=O)N[C@@H](C)C(=O)N1CCC[C@H]1C(=O)N1CCC[C@H]1C(=O)N1CCC[C@H]1C(=O)N[C@@H](CO)C(N)=O [Example 293] | 0.0562 | 0.0775 | 0.132 | 1.64 | – | 0.00719 | 0.368 | 668 | 29.5 |
| CC[C@H](C)[C@H](NC(=O)[C@H](CC(C)C)NC(=O)[C@H](Cc1ccc(O)cc1)NC(=O)[C@H](CCC(=O)O)NC(=O)[C@@H](NC(=O)[C@H](Cc1ccccc1)NC(=O)[C@H](C)NC(=O)C(C)(C)NC(=O)[C@H](CCC(N)=O)NC(=O)[C@H](C)NC(=O)[C@H](CCCCNC(=O)COCCOCCNC(=O)COCCOCCNC(=O)CC[C@H](NC(=O)CCCCCCCCCCCCCCCCC(=O)O)C(=O)O)NC(=O)[C@H](CCCCN)NC(=O)[C@H](CC(=O)O)NC(=O)[C@H](CC(C)C)NC(=O)[C@H](CC(C)C)NC(=O)[C@@H](NC(=O)[C@H](CO)NC(=O)[C@H](Cc1ccc(O)cc1)NC(=O)[C@H](CC(=O)O)NC(=O)[C@H](CO)NC(=O)[C@@H](NC(=O)[C@](C)(Cc1ccccc1F)NC(=O)[C@@H](NC(=O)CNC(=O)[C@H](CCC(=O)O)NC(=O)C(C)(C)NC(=O)[C@@H](N)Cc1ccc(O)cc1)[C@@H](C)O)[C@@H](C)O)[C@@H](C)CC)[C@@H](C)CC)C(=O)N[C@@H](CCC(=O)O)C(=O)NCC(=O)NCC(=O)N1CCC[C@H]1C(=O)N[C@@H](CO)C(=O)N[C@@H](CO)C(=O)NCC(N)=O [Example 302] (H-Y[Aib]EGT[αMePhe(2-F)]TSDYSILLDKK([AEEA-AEEA-γGlu-C18 diacid])AQ[Aib]AFIEYLIEGGPSSG-NH2) | 0.0308 | 0.0289 | 0.0275 | 0.617 | – | 0.00219 | 0.268 | 18.5 | 98.4 |
| CC[C@H](C)[C@H](NC(=O)[C@H](CC(C)C)NC(=O)[C@H](Cc1ccc(O)cc1)NC(=O)[C@H](CCC(=O)O)NC(=O)[C@@H](NC(=O)[C@H](Cc1ccccc1)NC(=O)[C@H](C)NC(=O)C(C)(C)NC(=O)[C@H](CCC(N)=O)NC(=O)[C@H](C)NC(=O)[C@H](CCCCNC(=O)COCCOCCNC(=O)COCCOCCNC(=O)CC[C@H](NC(=O)CCCCCCCCCCCCCCCCC(=O)O)C(=O)O)NC(=O)[C@H](CCCCN)NC(=O)[C@H](CC(=O)O)NC(=O)[C@H](CC(C)C)NC(=O)[C@H](CC(C)C)NC(=O)[C@@H](NC(=O)[C@H](CO)NC(=O)[C@H](Cc1ccc(O)cc1)NC(=O)[C@H](CC(=O)O)NC(=O)[C@H](CO)NC(=O)[C@@H](NC(=O)[C@H](Cc1ccccc1)NC(=O)[C@@H](NC(=O)CNC(=O)[C@H](CCC(=O)O)NC(=O)C(C)(C)NC(=O)[C@@H](N)Cc1ccc(O)cc1)[C@@H](C)O)[C@@H](C)O)[C@@H](C)CC)[C@@H](C)CC)C(=O)N[C@@H](CCC(=O)O)C(=O)NCC(=O)NCC(=O)N1CCC[C@H]1C(=O)N[C@@H](CO)C(=O)N[C@@H](CO)C(=O)NCC(=O)N[C@@H](C)C(=O)N1CCC[C@H]1C(=O)N1CCC[C@H]1C(=O)N1CCC[C@H]1C(=O)N[C@@H](CO)C(N)=O [Example 315] | 0.0408 | 0.0677 | 0.0651 | 2.28 | – | 0.0199 | 0.601 | 539 | 25.4 |
